Reference: patent US5703079A, “Tetrahydrofuran antifungals” (Schering Corporation, priority 1995, dated 1997)

Key:
[1] = serum levels, half lives and tissue distribution following oral dosing; format: in vivo; details: methyl cellulose formulation, mice, rats, dogs and monkeys
Dermatophytes = test: in vitro antifungal broth dilution, dermatophytes (6 strains); format: cell-based, T. rubrum, T. mentagrophytes, and T. tonsurans; details: for percentages of strains with MICs ≤1 mcg/ml: Table Q; for percentages of strains with MFCs ≤1 mcg/ml: Table R
Description: (§1) The in vitro antifungal activity tests were performed via conventional broth dilution methods in Sabouraud dextrose broth ("SDB") medium and Eagles Minimum Essential Medium ("EMEM") against a large number of fungi. Minimum Inhibitory Concentrations ("MICs") were measured after 24, 48 and 72 hour tests. In many cases, Minimum Fungicidial Concentrations ("MFCS") were measured after 48 and 72 hours.

Cryptococcus neoformans = test: in vitro antifungal broth dilution, Cryptococcus neoformans (3 strains); format: cell-based; details: for percentages of strains with MICs ≤1 mcg/ml: Table Q; for percentages of strains with MFCs ≤1 mcg/ml: Table R; for MIC 90: Table S, MIC for 90% of the strains
Description: as §1

Candida albicans = test: in vitro antifungal broth dilution, Candida albicans (26 strains); format: cell-based; details: for percentages of strains with MICs ≤1 mcg/ml: Table Q; for percentages of strains with MFCs ≤1 mcg/ml: Table R; for MIC 90: Table S, MIC for 90% of the strains
Description: as §1

Candida krusei = test: in vitro antifungal broth dilution, Candida krusei (16 strains); format: cell-based; details: for percentages of strains with MICs ≤1 mcg/ml: Table Q; for percentages of strains with MFCs ≤1 mcg/ml: Table R
Description: as §1

[2] = system: Candida tropicalis & stellatoidea; test: in vitro antifungal broth dilution, Candida tropicalis & stellatoidea (5 strains); format: cell-based; details: for percentages of strains with MICs ≤1 mcg/ml: Table Q; for percentages of strains with MFCs ≤1 mcg/ml: Table R; for MIC 90: Table S, MIC for 90% of the strains
Description: as §1

Aspergillus = test: in vitro antifungal broth dilution, Aspergillus (37 strains); format: cell-based, Aspergillus (flavus, fumigatus and other species); details: for percentages of strains with MICs ≤1 mcg/ml / percentages of strains with MFCs ≤1 mcg/ml: Aspergillus, 37 strains; for percentages of strains with MICs ≤1 mcg/ml: Table Q; for percentages of strains with MFCs ≤1 mcg/ml: Table R
Description: as §1

Candida glabrata = test: in vitro antifungal broth dilution, Candida glabrata (9 strains); format: cell-based; details: for percentages of strains with MICs ≤1 mcg/ml: Table Q; for percentages of strains with MFCs ≤1 mcg/ml: Table R; for MIC 90: Table S, MIC for 90% of the strains
Description: as §1

SMILES	percentages of strains with MICs ≤1 mcg/ml (Dermatophytes) [%]	percentages of strains with MICs ≤1 mcg/ml (Cryptococcus neoformans) [%]	percentages of strains with MFCs ≤1 mcg/ml (Cryptococcus neoformans) [%]	MIC 90 (Cryptococcus neoformans)	percentages of strains with MICs ≤1 mcg/ml (Candida albicans) [%]	percentages of strains with MFCs ≤1 mcg/ml (Candida albicans) [%]	percentages of strains with MICs ≤1 mcg/ml (Candida krusei) [%]	percentages of strains with MICs ≤1 mcg/ml [2] [%]	percentages of strains with MFCs ≤1 mcg/ml [2] [%]	MIC 90 [2]	percentages of strains with MICs ≤1 mcg/ml (Aspergillus) [%]	percentages of strains with MICs ≤1 mcg/ml (Candida glabrata) [%]	percentages of strains with MFCs ≤1 mcg/ml (Candida glabrata) [%]	MIC 90 (Candida albicans)	MIC 90 (Candida glabrata) [MCG/ML]	other results
CCC(C(C)O)n1ncn(-c2ccc(N3CCN(c4ccc(OCC5COC(Cn6cncn6)(c6ccc(F)cc6F)C5)cc4)CC3)cc2)c1=O (centres unmarked) [drawing 24]																serum levels compared to azoles of similar structure [1]: consistently higher serum levels
CCC(C(C)O)n1ncn(-c2ccc(N3CCN(c4ccc(OCC5COC(Cn6cncn6)(c6ccc(F)cc6F)C5)cc4)CC3)cc2)c1=O (centres unmarked) [drawing 25]	100	100	100	.05 MCG/ML	100	100	100	100	100	.117 MCG/ML	100	22	22			percentages of strains with MFCs ≤1 mcg/ml (Dermatophytes; listed as drawing 29): 67%; percentages of strains with MFCs ≤1 mcg/ml (Candida krusei; listed as drawing 29): 88%; percentages of strains with MFCs ≤1 mcg/ml (Aspergillus; listed as drawing 29): 50%
CCC(C(C)O)n1ncn(-c2ccc(N3CCN(c4ccc(OCC5COC(Cn6cncn6)(c6ccc(F)cc6F)C5)cc4)CC3)cc2)c1=O (centres unmarked) [drawing 26]		100	100	.007 MCG/ML	100	100		100	100	.117 MCG/ML		22	22	.174 MCG/ML	17.1	percentages of strains with MFCs ≤1 mcg/ml (Dermatophytes; listed as drawing 30): 83%; percentages of strains with MFCs ≤1 mcg/ml (Candida krusei; listed as drawing 30): 94%; percentages of strains with MFCs ≤1 mcg/ml (Aspergillus; listed as drawing 30): 62%
OC(Cn1cncn1)(Cn1cncn1)c1ccc(F)cc1F [fluconazole, reference compound]	100	0	0		100	100	0	100	100		0	0	0			percentages of strains with MFCs ≤1 mcg/ml (Dermatophytes): 0%; percentages of strains with MFCs ≤1 mcg/ml (Candida krusei): 0%; percentages of strains with MFCs ≤1 mcg/ml (Aspergillus): 0%; MFC (Aspergillus; SDB, 37 species of Aspergillus, compared to fluconazole, read-out: geometric mean MFC): ≥ 32 µg/mL
CCC(C(C)O)n1ncn(-c2ccc(N3CCN(c4ccc(OCC5COC(Cn6cncn6)(c6ccc(F)cc6F)C5)cc4)CC3)cc2)c1=O (centres unmarked) [drawing 27]		100	100	.101 MCG/ML	100	100		100	100	.354 MCG/ML		33	22	.139 MCG/ML	28.8	percentages of strains with MFCs ≤1 mcg/ml (Dermatophytes; listed as drawing 31): 100%; percentages of strains with MFCs ≤1 mcg/ml (Candida krusei; listed as drawing 31): 100%; percentages of strains with MFCs ≤1 mcg/ml (Aspergillus; listed as drawing 31): 89%
